From patent US20250009742A1 (priority 2021, published 2025)

These compounds were tested on intracellular HBV DNA (assay: Real-time PCR for intracellular HBV DNA in HepAD38 cells). Details: 65 hours treatment.
Assay type: cell-based
Protocol: HepAD38 cells were cultured in DMEM medium (Welgene) supplemented with 200 unit/mL penicillin, 200 μg/mL streptomycin, and 10% FBS. During maintenance and passage, the cells were cultured together with 0.4 μg/mL tetracycline. Two days before the treatment with compounds for inducing HBV replication was started, the medium was replaced with a tetracycline-free complete growth medium. […]
HepAD38 cells were treated with a compound for 65 hours and then recovered, and intracellular HBV DNA was extracted therefrom according to the protocol in the DNeasy Blood & Tissue Kit (Qiagen). The primers and probes used to quantify HBV DNA were 5′-[…]-3′, 5′-[…]-3′, and 5′-/56-FAM/TGT CCT GGT/ZEN/TAT CGC TGG ATG TGT CT/3IABkFQ/-3′. The HBV DNA was amplified by real-time PCR assay using LightCycler 480 (Roche) (J. Virol., 2018, 92(16):e00339-18). All of the processes were confirmed in duplicate.
COc1ncc(N(Cc2cc(C(F)(F)F)[nH]n2)C(=O)Nc2ccc(F)c(C(F)F)n2)cn1 [Example 204, 3-(6-(difluoromethyl)-5-fluoropyridin-2-yl)-1-(2-methoxypyrimidin-5-yl)-1-((5-(trifluoromethyl)-1H-pyrazol-3-yl)methyl)urea] was tested, and the IC50 was 36 nM.
With COc1ncc(N(Cc2cc(C(F)F)[nH]n2)C(=O)Nc2ccc(F)c(C(F)F)n2)cn1 [Example 210, 1-((5-(difluoromethyl)-1H-pyrazol-3-yl)methyl)-3-(6-(difluoromethyl)-5-fluoropyridin-2-yl)-1-(2-methoxypyrimidin-5-yl)urea] the IC50 was 130 nM.

Same assay, conditions: Hepatitis B virus, HePAD38, 65 h, 65 hours treatment
Compound COc1ncc(N(Cc2cc(C#N)[nH]n2)C(=O)Nc2ccc(F)c(C#N)c2)cn1 [Example 157, 1-((5-cyano-1H-pyrazol-3-yl)methyl)-3-(3-cyano-4-fluorophenyl)-1-(2-methoxypyrimidin-5-yl)urea] has an IC50 of 66 nM.
For COc1ncc(N(Cc2cc(C(F)(F)F)[nH]n2)C(=O)Nc2ccnc(Br)c2F)cn1 [Example 4, 3-(2-bromo-3-fluoropyridin-4-yl)-1-(2-methoxypyrimidin-5-yl)-1-((5-(trifluoromethyl)-1H-pyrazol-3-yl)methyl)urea], the IC50 was 21 nM.
COc1ncc(N(Cc2n[nH]c(C(F)F)c2CC(C)(C)O)C(=O)Nc2ccc(F)c(Cl)c2)cn1 [Example 103, 3-(3-chloro-4-fluorophenyl)-1-((5-(difluoromethyl)-4-(2-hydroxy-2-methylpropyl)-1H-pyrazol-3-yl)methyl)-1-(2-methoxypyrimidin-5-yl)urea] showed an IC50 greater than 1100 nM.
In the case of COc1ncc(N(Cc2cc(C(F)F)[nH]n2)C(=O)Nc2cccc(C#N)c2)cn1 [Example 147, 3-(3-cyanophenyl)-1-((5-(difluoromethyl)-1H-pyrazol-3-yl)methyl)-1-(2-methoxypyrimidin-5-yl)urea], the IC50 is reported as 80 nM.
Work on COc1ncc(N(Cc2cc(C(F)F)[nH]n2)C(=O)Nc2cc(F)c(F)c(Cl)c2)cn1 [Example 12, 3-(3-chloro-4,5-difluorophenyl)-1-((5-(difluoromethyl)-1H-pyrazol-3-yl)methyl)-1-(2-methoxypyrimidin-5-yl)urea] yielded an IC50 of 45 nM.
COc1ncc(NC(=O)N(Cc2cc(C(F)(F)F)[nH]n2)c2cnc(OC)nc2)cn1 [Example 216, 1,3-bis(2-methoxypyrimidin-5-yl)-1-((5-(trifluoromethyl)-1H-pyrazol-3-yl)methyl)urea] showed an IC50 greater than 1100 nM.
In the case of COc1ccc(N(Cc2n[nH]c(C(F)(F)F)c2CC2OC(C)(C)C(C)(C)O2)C(=O)Nc2ccc(F)c(Cl)c2)cn1 [Example 87, 3-(3-chloro-4-fluorophenyl)-1-(6-methoxypyridin-3-yl)-1-((4-((4,4,5,5-tetramethyl-1,3-dioxolan-2-yl)methyl)-5-(trifluoromethyl)-1H-pyrazol-3-yl)methyl)urea], the IC50 is reported as 34 nM.
Compound COc1ncc(N(Cc2cc(C(F)(F)F)[nH]n2)C(=O)Nc2cccc(C(F)F)n2)cn1 [Example 177, 3-(6-(difluoromethyl)pyridin-2-yl)-1-(2-methoxypyrimidin-5-yl)-1-((5-(trifluoromethyl)-1H-pyrazol-3-yl)methyl)urea] has an IC50 of 100 nM.
For COc1ccc(N(Cc2cc(C(F)(F)F)[nH]n2)C(=O)Nc2ccc(F)c(C(F)F)c2)nn1 [Example 200, 3-(3-(difluoromethyl)-4-fluorophenyl)-1-(6-methoxypyridazin-3-yl)-1-((5-(trifluoromethyl)-1H-pyrazol-3-yl)methyl)urea], the IC50 was greater than 1100 nM.
COc1ncc(N(Cc2cc(C(F)(F)F)[nH]n2)C(=O)Nc2cccc(F)n2)cn1 [Example 183, 3-(6-fluoropyridin-2-yl)-1-(2-methoxypyrimidin-5-yl)-1-((5-(trifluoromethyl)-1H-pyrazol-3-yl)methyl)urea] showed an IC50 greater than 1100 nM.
COc1ccc(N(Cc2n[nH]c(C(F)F)c2OC)C(=O)Nc2ccc(F)c(Cl)c2)cn1 [Example 100, 3-(3-chloro-4-fluorophenyl)-1-((5-(difluoromethyl)-4-methoxy-1H-pyrazol-3-yl)methyl)-1-(6-methoxypyridin-3-yl)urea] gave an IC50 of 36 nM.
COc1ncc(N(Cc2cc(C(F)(F)F)[nH]n2)C(=O)Nc2cccc(Cl)n2)cn1 [Example 5, 3-(6-chloropyridin-2-yl)-1-(2-methoxypyrimidin-5-yl)-1-((5-(trifluoromethyl)-1H-pyrazol-3-yl)methyl)urea] was tested, and the IC50 was 380 nM.
COc1ncc(N(Cc2cc(C(F)(F)F)[nH]n2)C(=O)Nc2cc(F)c(F)c(Cl)c2)cn1 [Example 11, 3-(3-chloro-4,5-difluorophenyl)-1-(2-methoxypyrimidin-5-yl)-1-((5-(trifluoromethyl)-1H-pyrazol-3-yl)methyl)urea] was tested, and the IC50 was 10 nM.
COc1ncc(N(Cc2cc(C(F)(F)F)[nH]n2)C(=O)Nc2cc(C#N)c(F)cn2)cn1 [Example 161, 3-(4-cyano-5-fluoropyridin-2-yl)-1-(2-methoxypyrimidin-5-yl)-1-((5-(trifluoromethyl)-1H-pyrazol-3-yl)methyl)urea] showed an IC50 of 74 nM.
Compound COc1ncc(N(Cc2cc(C(F)(F)F)[nH]n2)C(=O)Nc2ccc(C#N)c(C#N)c2)cn1 [Example 167, 3-(3,4-dicyanophenyl)-1-(2-methoxypyrimidin-5-yl)-1-((5-(trifluoromethyl)-1H-pyrazol-3-yl)methyl)urea] has an IC50 of 190 nM.
Work on COc1ncc(N(Cc2n[nH]c(C(F)(F)F)c2CC(C)(C)O)C(=O)Nc2ccc(F)c(C(F)F)c2)cn1 [Example 205, 3-(3-(difluoromethyl)-4-fluorophenyl)-1-((4-(2-hydroxy-2-methylpropyl)-5-(trifluoromethyl)-1H-pyrazol-3-yl)methyl)-1-(2-methoxypyrimidin-5-yl)urea] yielded an IC50 greater than 1100 nM.
COc1ncc(N(Cc2cc(C(F)(F)F)[nH]n2)C(=O)Nc2cc(C)c(F)c(Cl)c2)cn1 [Example 140, 3-(3-chloro-4-fluoro-5-methylphenyl)-1-(2-methoxypyrimidin-5-yl)-1-((5-(trifluoromethyl)-1H-pyrazol-3-yl)methyl)urea] was tested, and the IC50 was 37 nM.
COc1ncc(N(Cc2cc(C(F)F)[nH]n2)C(=O)Nc2cc(F)c(F)c(F)c2)cn1 [Example 220, 1-((5-(difluoromethyl)-1H-pyrazol-3-yl)methyl)-1-(2-methoxypyrimidin-5-yl)-3-(3,4,5-trifluorophenyl)urea] showed an IC50 of 48 nM.
N#Cc1ccc(N(Cc2n[nH]c3c2CCCO3)C(=O)Nc2ccc(F)c(Cl)c2)cn1 [Example 124, 3-(3-chloro-4-fluorophenyl)-1-(6-cyanopyridin-3-yl)-1-((1,4,5,6-tetrahydropyrano[2,3-c]pyrazol-3-yl)methyl)urea] showed an IC50 of 47 nM.
COc1ncc(N(Cc2cc(C(F)F)[nH]n2)C(=O)Nc2ccc(F)c(C(F)F)c2)cn1 [Example 190, 1-((5-(difluoromethyl)-1H-pyrazol-3-yl)methyl)-3-(3-(difluoromethyl)-4-fluorophenyl)-1-(2-methoxypyrimidin-5-yl)urea] gave an IC50 of 20 nM.
COc1ncc(N(Cc2cc(C(F)(F)F)[nH]n2)C(=O)Nc2nc(F)ccc2F)cn1 [Example 169, 3-(3,6-difluoropyridin-2-yl)-1-(2-methoxypyrimidin-5-yl)-1-((5-(trifluoromethyl)-1H-pyrazol-3-yl)methyl)urea] was tested, and the IC50 was greater than 1100 nM.
For COc1ncc(N(Cc2cc(C(F)(F)F)[nH]n2)C(=O)Nc2ccc(Cl)c(C#N)n2)cn1 [Example 8, 3-(5-chloro-6-cyanopyridin-2-yl)-1-(2-methoxypyrimidin-5-yl)-1-((5-(trifluoromethyl)-1H-pyrazol-3-yl)methyl)urea], the IC50 was greater than 1100 nM.
